Series [1] has as its system ICAM-1 expressed on HUVEC. As to the kind of experiment: Test about suppression of ICAM-1 expression (enzyme immuno assay, EIA), TNF-α-stimulated HUVEC. Type of series: cell-based. Particulars: Homo sapiens, TNF-α 0.3 ng/ml. As for the experimental part: Using a culture broth containing serum for vascular endothelial cell (manufactured by Nissui Pharmaceutical Co., Ltd.) as a culture medium, HUVEC (umbilical vein endothelial cell manufactured by Morinaga Bioscience Institute) was cultured in a collagen-treated flask by the routine method.
For carrying out a test about the suppression of ICAM-1 expression with HUVEC, a collagen-treated 96-well plate was used, where HUVEC was added at 1 to 2×10^4 cells/well while the culture medium was added at 100 to 200 μl/well. The cell was cultured in 5% CO2 at 37° C. for 48 to 72 hours. Before adding a test solution, the culture medium (80 μl) was exchanged, to which 10 μl of a test solution preliminarily diluted was then added. The plate was allowed to stand alone in a CO2 incubator. 2 hours later, 10 μl of TNF-α (recombinant human TNF-α, manufactured by Genzyme) was added (to a final concentration of 0.3 ng/ml). The resulting plate was again allowed to stand alone in the CO2 incubator. 16 to 22 hours later, the cell was fixed with 1% p-formaldehyde solution. The cell was rinsed with a phosphate buffer containing Ca^2+ and Mg^2+, which was then treated with an anti-human ICAM-1 antibody (mouse IgG1, manufactured by Kyowa Medics) at ambient temperature for 30 minutes. After the cell was rinsed again with the phosphate buffer, the cell was treated with a peroxide-labeled anti-mouse IgG (H+L) (manufactured by Organon Teknik Corp.) for another 30 minutes. After the cell was again rinsed with the phosphate buffer, the color developed was measured, using a peroxidase chromogenic kit (manufactured by Sumitomo Bakelite Co., Ltd.), to determine ICAM-1 expressed on HUVEC as an expression-inhibiting ratio (%) to a non-drug group to calculate the IC50 value.

A short description of a further series: Solubility in solvents. Type of series: physicochemical. As to conditions: methanol, chloroform, acetone, water, hexane.
Series [2] has as its system footpad thickness, MeHSA-sensitized C57BL/6 mouse. As to the kind of experiment: Methylated human serum albumin-induced delayed hypersensitivity test (MeHSA-DTH). It is filed as in vivo. Particulars: oral, twice, footpad thickness 24 hours after induction. As for the experimental part: Methylated human serum albumin (MeHSA) was dissolved in physiological saline to 5 mg/ml, which was then mixed with an equal volume of the complete Freund's adjuvant (manufactured by Iatron), to prepare an emulsion. Next, 100 μl of the prepared emulsion was injected subcutaneously into a 8-week-old male C57BL/6 mouse, for antigen sensitization. Seven days thereafter, MeHSA was dissolved in physiological saline to 1 mg/ml, which was injected at 25 μl subcutaneously into the footpad of the right hind limb, to trigger a reaction. The thickness of the footpad was measured 24 hours after the induction of the reaction, to calculate the difference from the thickness thereof before the induction of the reaction, to make an assessment. Additionally, drugs were orally given twice, namely one hour before the induction of the reaction and 16 hours after the induction thereof.

The conditions of series [3]: reported in non-patent reference 14; cited from earlier work.

In general, pIC50 refers to the negative decadic logarithm of the IC50, by convention in mol/L. Low readings indicate a large IC50, high ones a small IC50. A word on the melting point: it is the temperature of the solid-liquid transition.

pIC50: −log10 of the molar value. Marks after values point to notes of the source that are not given here.

As to `COC(=O)/C(C)=C/C=C/[C@@H]1[C@H]2[C@H](C)[C@@H](O)[C@H](C)C[C@@H]2C=C[C@@H]1C` [Example 2, Methyl (2E,4E)-5-[(1S,2S,4aR,6R,7S,8S,8aS)-7-hydroxy-2,6,8-trimethyl-1,2,4a,5,6,7,8,8a-octahydronaphthalen-1-yl]-2-methylpenta-2,4-dienoate], the melting point was 54 to 57 °C. Further, the pIC50 in series [1] is 6.17. In series [1], `C/C(=C\C=C\[C@@H]1[C@H]2[C@H](C)[C@@H](O)[C@H](C)C[C@@H]2C=C[C@@H]1C)C(=O)NCCc1ccc(O)cc1` [Example 14, N-(4-Hydroxyphenethyl)-(2E,4E)-5-[(1S,2S,4aR,6R,7S,8S,8aS)-7-hydroxy-2,6,8-trimethyl-1,2,4a,5,6,7,8,8a-octahydronaphthalen-1-yl]-2-methylpenta-2,4-dienamide] gave a pIC50 of 4.82. The compound `C/C(=C\C=C\[C@@H]1[C@H]2[C@H](C)[C@@H](O)[C@H](C)C[C@@H]2C=C[C@@H]1C)C(=O)O` [Example 1, (2E,4E)-5-[(1S,2S,4aR,6R,7S,8S,8aS)-7-hydroxy-2,6,8-trimethyl-1,2,4a,5,6,7,8,8a-octahydronaphthalen-1-yl]-2-methylpenta-2,4-dienoic acid] had a negative logarithm of the IC50 (pIC50) in series [1] of 4.23. Also, the Solubility entry in the series “Solubility in solvents” was “soluble in methanol, chloroform and acetone but insoluble in water and hexane”. In the case of `C/C(=C\C=C\[C@@H]1[C@H]2[C@H](C)[C@@H](O)[C@H](C)C[C@@H]2C=C[C@@H]1C)C(=O)NC(C)(C)C` [Example 19, N-(t-Butyl)-(2E,4E)-5-[(1S,2S,4aR,6R,7S,8S,8aS)-7-hydroxy-2,6,8-trimethyl-1,2,4a,5,6,7,8,8a-octahydronaphthalen-1-yl]-2-methylpenta-2,4-dienamide], the pIC50 in series [1] was 4.82. Same read-out and setting: under `CCCCNC(=O)/C(C)=C/C=C/[C@@H]1[C@H]2[C@H](C)[C@@H](O)[C@H](C)C[C@@H]2C=C[C@@H]1C` [Example 18, N-(n-Butyl)-(2E,4E)-5-[(1S,2S,4aR,6R,7S,8S,8aS)-7-hydroxy-2,6,8-trimethyl-1,2,4a,5,6,7,8,8a-octahydronaphthalen-1-yl]-2-methylpenta-2,4-dienamide] stands 5.62.

Take `C/C(=C\C=C\[C@@H]1[C@H]2[C@H](C)[C@@H](O)[C@H](C)C[C@@H]2C=C[C@@H]1C)C(=O)Nc1ccccc1` [Example 16, N-Phenyl-(2E,4E)-5-[(1S,2S,4aR,6R,7S,8S,8aS)-7-hydroxy-2,6,8-trimethyl-1,2,4a,5,6,7,8,8a-octahydronaphthalen-1-yl]-2-methylpenta-2,4-dienamide]: the pIC50 in series [1] is 4.82. `CNC(=O)/C(C)=C/C=C/[C@@H]1[C@H]2[C@H](C)[C@@H](O)[C@H](C)C[C@@H]2C=C[C@@H]1C` [Example 17, N-Methyl-(2E,4E)-5-[(1S,2S,4aR,6R,7S,8S,8aS)-7-hydroxy-2,6,8-trimethyl-1,2,4a,5,6,7,8,8a-octahydronaphthalen-1-yl]-2-methylpenta-2,4-dienamide] showed a negative-log IC50 (pIC50) in series [1] of 5.59. Consider `C/C(=C\C=C\[C@@H]1[C@H]2[C@H](C)[C@@H](O)[C@H](C)C[C@@H]2C=C[C@@H]1C)C(=O)NCc1ccc(Cl)cc1` [Example 10, N-(4-Chlorobenzyl)-(2E,4E)-5-[(1S,2S,4aR,6R,7S,8S,8aS)-7-hydroxy-2,6,8-trimethyl-1,2,4a,5,6,7,8,8a-octahydronaphthalen-1-yl]-2-methylpenta-2,4-dienamide], for which the pIC50 in series [1] was 3.85. Same read-out and setting: under `C/C(=C\C=C\[C@@H]1[C@H]2[C@H](C)[C@@H](O)[C@H](C)C[C@@H]2C=C[C@@H]1C)C(=O)N(C)Cc1ccccc1` [Example 21, N-Benzyl-N-methyl-(2E,4E)-5-[(1S,2S,4aR,6R,7S,8S,8aS)-7-hydroxy-2,6,8-trimethyl-1,2,4a,5,6,7,8,8a-octahydronaphthalen-1-yl]-2-methylpenta-2,4-dienamide] stands 5.31; under `C/C(=C\C=C\[C@@H]1[C@H]2[C@H](C)[C@@H](O)[C@H](C)C[C@@H]2C=C[C@@H]1C)C(=O)NCc1ccccn1` [Example 7, N-(Pyridin-2-ylmethyl)-(2E,4E)-5-[(1S,2S,4aR,6R,7S,8S,8aS)-7-hydroxy-2,6,8-trimethyl-1,2,4a,5,6,7,8,8a-octahydronaphthalen-1-yl]-2-methylpenta-2,4-dienamide], 5.70.

On to `COc1cccc(CNC(=O)/C(C)=C/C=C/[C@@H]2[C@H]3[C@H](C)[C@@H](O)[C@H](C)C[C@@H]3C=C[C@@H]2C)c1` [Example 9, N-(3-Methoxybenzyl)-(2E,4E)-5-[(1S,2S,4aR,6R,7S,8S,8aS)-7-hydroxy-2,6,8-trimethyl-1,2,4a,5,6,7,8,8a-octahydronaphthalen-1-yl]-2-methylpenta-2,4-dienamide], for which the pIC50 in series [1] is 5.68.

Regarding `C/C(=C\C=C\[C@@H]1[C@H]2[C@H](C)[C@@H](O)[C@H](C)C[C@@H]2C=C[C@@H]1C)C(=O)N(C)C` [Example 20, N,N-Dimethyl-(2E,4E)-5-[(1S,2S,4aR,6R,7S,8S,8aS)-7-hydroxy-2,6,8-trimethyl-1,2,4a,5,6,7,8,8a-octahydronaphthalen-1-yl]-2-methylpenta-2,4-dienamide], the pIC50 in series [1] is 5.85. In the case of `C/C(=C\C=C\[C@@H]1[C@H]2[C@H](C)[C@@H](O)[C@H](C)C[C@@H]2C=C[C@@H]1C)C(=O)NCc1ccc(C)cc1` [Example 11, N-(4-Methylbenzyl)-(2E,4E)-5-[(1S,2S,4aR,6R,7S,8S,8aS)-7-hydroxy-2,6,8-trimethyl-1,2,4a,5,6,7,8,8a-octahydronaphthalen-1-yl]-2-methylpenta-2,4-dienamide], in series [1], the pIC50 is 3.80. With `C/C(=C\C=C\[C@@H]1[C@H]2[C@H](C)[C@@H](O)[C@H](C)C[C@@H]2C=C[C@@H]1C)C(=O)NCc1ccccc1` [Example 8, N-Benzyl-(2E,4E)-5-[(1S,2S,4aR,6R,7S,8S,8aS)-7-hydroxy-2,6,8-trimethyl-1,2,4a,5,6,7,8,8a-octahydronaphthalen-1-yl]-2-methylpenta-2,4-dienamide], the negative logarithm of the IC50 (pIC50) in series [1] was 6.33. With `C/C(=C\C=C\[C@@H]1[C@H]2[C@H](C)[C@@H](O)[C@H](C)C[C@@H]2C=C[C@@H]1C)C(=O)NCc1ccncc1` [Example 6, N-(Pyridin-4-ylmethyl)-(2E,4E)-5-[(1S,2S,4aR,6R,7S,8S,8aS)-7-hydroxy-2,6,8-trimethyl-1,2,4a,5,6,7,8,8a-octahydronaphthalen-1-yl]-2-methylpenta-2,4-dienamide], the pIC50 in series [1] was 6.23. Further, the figures for the “Suppression ratio (%)” value in series [2] (10 mg/kg) and in series [2] (30 mg/kg) were 27.8* % and 35.7** %, respectively. In the case of `C/C(=C\C=C\[C@@H]1[C@H]2[C@H](C)[C@@H](O)[C@H](C)C[C@@H]2C=C[C@@H]1C)C(N)=O` [Example 22, (2E,4E)-5-[(1S,2S,4aR,6R,7S,8S,8aS)-7-Hydroxy-2,6,8-trimethyl-1,2,4a,5,6,7,8,8a-octahydronaphthalen-1-yl]-2-methylpenta-2,4-dienamide], the pIC50 in series [1] is 5.06. The same measure, in the same setting: under `C/C(=C\C=C\[C@@H]1[C@H]2[C@H](C)[C@@H](O)[C@H](C)C[C@@H]2C=C[C@@H]1C)C(=O)NCCc1ccncc1` [Example 13, N-(Pyridin-4-ylethyl)-(2E,4E)-5-[(1S,2S,4aR,6R,7S,8S,8aS)-7-hydroxy-2,6,8-trimethyl-1,2,4a,5,6,7,8,8a-octahydronaphthalen-1-yl]-2-methylpenta-2,4-dienamide] stands 5.24; under `C/C(=C\C=C\[C@@H]1[C@H]2[C@H](C)[C@@H](O)[C@H](C)C[C@@H]2C=C[C@@H]1C)CO` [Example 3, (2E,4E)-5-[(1S,2S,4aR,6R,7S,8S,8aS)-7-Hydroxy-2,6,8-trimethyl-1,2,4a,5,6,7,8,8a-octahydronaphthalen-1-yl]-2-methylpenta-2,4-dien-1-ol], 5.00. `COC(=O)/C=C/C=C/[C@@H]1[C@H]2[C@H](C)[C@@H](O)[C@H](C)C[C@@H]2C=C[C@@H]1C` [Coprophilin]: the Antibacterial activity result in series [3] is “has an antibacterial activity”.

The values above are taken from patent publication US7884116B2, “Octahydronaphthalene derivative and medicine” (Nippon Shinyaku Co., Ltd., priority 2003, dated 2011).
